Assay results published in ChEMBL document CHEMBL1201862, “PubChem BioAssay data set” (2004).
Calls of active or inactive are those of the source.

Columns and labels:
[1] = growth suppression of PTEN-null colon cells, dose response, cell-based, HCT116 PTEN knockout (AID 1047); format: functional;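 further: HCT116 colon tumor cells with PTEN knocked out; cells exposed to compound for 60 hours before readout; potency for loss of cell viability measured by luminescence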
[2] = growth suppression of beta-catenin-knockout colon cells, dose response, cell-based, HCT116, human colon tumor (AID 1045); format: functional;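 further: HCT116 colon tumor cells with beta catenin knocked out; cells exposed to compound for 60 hours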
[3] = THP-1 cell cytotoxicity, dose response, cytotoxicity control for non-replicating M. tuberculosis project (AID 489025); format: functional
[4] = HepG2 cell cytotoxicity, dose response, cytotoxicity control for non-replicating M. tuberculosis project (AID 489018); format: functional; conditions: Mycobacterium tuberculosis
[5] = Vero E6 cell cytotoxicity, dose response, cytotoxicity control for non-replicating M. tuberculosis project, secondary assay (AID 492998); format: functional, VeroE6; conditions: Vero C1008
cells [6] = format: functional
[7] = target: T1, Heat shock factor protein 1 (Mus musculus, UniProt P38532); assay: HSF1 potentiators in luciferase reporter cells, confirmation, cell-based, NIH3T3, luminescence, dose retest (AID 435004); format: functional;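 further: stress induced by proteasome inhibitor MG132 added 30 min after compound; luciferase reporter driven by HSF1 response element in NIH3T3 cells; actives raise luminescence as potentiators of the MG132 stress response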
T1 sequence (P38532 whole entry): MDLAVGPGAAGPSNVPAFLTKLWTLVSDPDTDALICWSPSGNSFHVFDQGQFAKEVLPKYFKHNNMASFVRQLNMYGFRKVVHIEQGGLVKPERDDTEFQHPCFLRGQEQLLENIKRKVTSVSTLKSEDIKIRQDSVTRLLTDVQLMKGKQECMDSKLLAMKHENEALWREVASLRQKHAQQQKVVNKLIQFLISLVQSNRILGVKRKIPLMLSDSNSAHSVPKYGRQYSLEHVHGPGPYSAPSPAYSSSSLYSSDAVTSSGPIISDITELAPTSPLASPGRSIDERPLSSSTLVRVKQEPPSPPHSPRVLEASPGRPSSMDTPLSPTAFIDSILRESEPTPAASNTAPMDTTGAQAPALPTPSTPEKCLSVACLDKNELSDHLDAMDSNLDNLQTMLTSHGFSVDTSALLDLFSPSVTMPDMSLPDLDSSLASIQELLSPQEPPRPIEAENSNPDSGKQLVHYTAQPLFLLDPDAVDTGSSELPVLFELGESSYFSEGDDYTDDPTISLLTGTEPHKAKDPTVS

cells [8] = format: functional, cell-based
cells [9] = format: functional, cell-based; remark: listed apart in the source
Cytochrome P450 2C19 = Cytochrome P450 2C19 (Homo sapiens, UniProt P33261); assay: Cytochrome panel assay with activity outcomes. Panel member name: p450-cyp2c19 Compounds with AC50 equal or less than 10 uM are considered active; format: functional; conditions: read-out: AC50
Chain of Cytochrome P450 2C19 (P33261 whole entry): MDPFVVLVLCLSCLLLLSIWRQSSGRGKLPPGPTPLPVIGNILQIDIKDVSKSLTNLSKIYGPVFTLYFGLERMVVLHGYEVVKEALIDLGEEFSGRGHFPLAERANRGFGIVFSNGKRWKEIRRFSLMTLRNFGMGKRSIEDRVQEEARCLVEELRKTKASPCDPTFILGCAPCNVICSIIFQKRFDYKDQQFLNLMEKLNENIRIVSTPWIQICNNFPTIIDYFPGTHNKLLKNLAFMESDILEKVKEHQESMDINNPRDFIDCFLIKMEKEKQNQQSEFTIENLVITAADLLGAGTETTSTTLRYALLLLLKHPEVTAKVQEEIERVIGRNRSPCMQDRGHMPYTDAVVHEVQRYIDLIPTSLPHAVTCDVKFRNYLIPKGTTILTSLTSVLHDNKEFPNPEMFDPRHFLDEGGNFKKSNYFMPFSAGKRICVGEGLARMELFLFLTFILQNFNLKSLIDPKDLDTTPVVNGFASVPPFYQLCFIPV

Cytochrome P450 2C9 [10] = target: T2, Cytochrome P450 2C9 (Homo sapiens, UniProt P11712)
T2 sequence (P11712 whole entry): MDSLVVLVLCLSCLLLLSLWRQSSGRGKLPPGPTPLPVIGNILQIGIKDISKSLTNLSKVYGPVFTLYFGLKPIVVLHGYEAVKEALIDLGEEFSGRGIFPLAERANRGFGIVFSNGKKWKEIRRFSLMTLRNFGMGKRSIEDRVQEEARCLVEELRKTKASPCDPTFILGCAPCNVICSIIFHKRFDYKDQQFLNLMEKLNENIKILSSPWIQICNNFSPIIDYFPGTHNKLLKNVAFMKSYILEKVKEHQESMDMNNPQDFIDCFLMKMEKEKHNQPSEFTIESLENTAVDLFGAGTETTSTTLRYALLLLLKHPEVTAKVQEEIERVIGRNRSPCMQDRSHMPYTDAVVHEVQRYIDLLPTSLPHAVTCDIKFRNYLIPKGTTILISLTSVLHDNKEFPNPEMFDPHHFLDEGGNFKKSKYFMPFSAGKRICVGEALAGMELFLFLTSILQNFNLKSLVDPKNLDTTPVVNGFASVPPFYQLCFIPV

Cytochrome P450 3A4 = Cytochrome P450 3A4 (Homo sapiens, UniProt P08684);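 further: CYP3A4 tested as one member of a cytochrome P450 panel screen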
Chain of Cytochrome P450 3A4 (P08684 whole entry): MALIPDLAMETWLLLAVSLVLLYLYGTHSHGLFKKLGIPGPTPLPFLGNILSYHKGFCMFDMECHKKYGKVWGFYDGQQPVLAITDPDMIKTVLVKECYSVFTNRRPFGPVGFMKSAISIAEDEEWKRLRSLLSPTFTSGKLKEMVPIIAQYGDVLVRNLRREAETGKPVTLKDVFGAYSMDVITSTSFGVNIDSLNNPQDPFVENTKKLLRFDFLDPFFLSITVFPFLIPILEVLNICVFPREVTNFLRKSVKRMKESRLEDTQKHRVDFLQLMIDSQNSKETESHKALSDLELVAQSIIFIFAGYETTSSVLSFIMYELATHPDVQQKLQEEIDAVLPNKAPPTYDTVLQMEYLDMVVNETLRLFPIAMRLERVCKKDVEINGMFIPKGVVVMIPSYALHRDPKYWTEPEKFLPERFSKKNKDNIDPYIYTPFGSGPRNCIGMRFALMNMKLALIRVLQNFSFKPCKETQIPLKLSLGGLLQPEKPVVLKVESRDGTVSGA

[11] = inhibitors of firefly luciferase expression or activity, dose response, H4 neuroglioma cells, luminescence (AID 1990); format: functional, cell-based
[12] = Luminescence Cell-Based Dose Response HTS to Identify Inhibitors of 5'UTR Stem-Loop Driven Prion Protein mRNA Translation in H4 Neuroglioblastoma Cells. [Related pubchem assays: 1827 (Project Summary), 1813 (Primary HTS)]; format: functional
[13] = inhibitors of SNCA 5'UTR-driven reporter translation, confirmation, H4 neuroglioma cells, luminescence (AID 1988); format: functional, cell-based
[14] = NIH-3T3 fibroblast cytotoxicity, dose response, cytotoxicity control, cell-based, fluorescence, Alamar Blue, secondary assay (AID 2327); format: functional;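 further: NIH-3T3 mouse fibroblasts cultured with fluconazole at 8 µg/mL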
[15] = tested on: Streptococcus sp. 'group A'; assay: growth inhibition of control SK(-) GAS strain, dose response, counter-screen for streptokinase expression inhibitor project, luminescence, kanamycin, BacTiterGlo, confirmation (AID 1900); format: functional, organism-based
[16] = C. albicans growth with fluconazole, confirmation, fluorescence, retest (AID 2467); format: functional, cell-based
Streptococcus = assay: Group A Streptococcus viability loss, dose response, counter-screen for streptokinase expression inhibitor project, luminescence, BacTiterGlo (AID 1915); format: functional, organism-based;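 further: potency for reduction of bacterial viability or growth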
Vero = assay: cells; format: functional; conditions: Chlorocebus sabaeus
Protein skinhead-1 = target: T3, Protein skinhead-1 (Caenorhabditis elegans, UniProt P34707); format: functional
T3 sequence (P34707 whole entry): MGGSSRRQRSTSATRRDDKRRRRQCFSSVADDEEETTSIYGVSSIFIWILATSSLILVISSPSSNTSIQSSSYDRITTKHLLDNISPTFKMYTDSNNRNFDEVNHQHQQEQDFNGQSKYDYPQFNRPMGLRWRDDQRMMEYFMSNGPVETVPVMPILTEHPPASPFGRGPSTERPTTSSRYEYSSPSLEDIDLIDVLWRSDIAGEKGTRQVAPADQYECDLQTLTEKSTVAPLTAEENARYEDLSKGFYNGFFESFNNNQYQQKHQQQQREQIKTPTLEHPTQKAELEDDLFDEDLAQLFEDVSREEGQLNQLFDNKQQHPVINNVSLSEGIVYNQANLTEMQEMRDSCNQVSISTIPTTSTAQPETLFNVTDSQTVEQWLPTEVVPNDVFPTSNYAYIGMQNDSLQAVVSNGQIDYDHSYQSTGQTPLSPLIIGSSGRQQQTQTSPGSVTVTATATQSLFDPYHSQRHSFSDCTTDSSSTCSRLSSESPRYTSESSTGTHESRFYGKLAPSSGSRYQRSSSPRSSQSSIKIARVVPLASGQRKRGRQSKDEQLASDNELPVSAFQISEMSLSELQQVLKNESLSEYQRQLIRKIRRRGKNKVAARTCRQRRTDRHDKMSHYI

INS1 = assay: beta cell apoptosis inhibitors, cytokine rescue, dose response, luminescence, retest (AID 449756); format: functional, cell-based; conditions: Rattus norvegicus;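 further: cell death triggered by IL-1 beta plus TNF-alpha plus IFN-gamma mixture; protective hits raise ATP signal compared with cytokine alone wells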
[17] = Shn3 3'UTR reporter inhibitors, dose response, cell-based, Clone20 osteoblasts, firefly luciferase, cherry-picked (AID 624132); format: functional;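 further: firefly luciferase luminescence from reporter carrying the Shn3 3'UTR in osteoblasts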
[18] = control 3'UTR Renilla luciferase suppression, dose response, counter-screen for Shn3 inhibitor project, cell-based, Clone20-Shn3RL, cherry-picked (AID 624133); format: functional
Streptokinase A = target: T4, Streptokinase A (Streptococcus pyogenes serotype M1, UniProt P10520); assay: S. pyogenes streptokinase expression inhibitors, potency, dose response, plasminogen activation absorbance, OD405 (AID 1914); format: functional, Streptococcus pyogenes M1 GAS;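 further: secreted streptokinase activity via plasminogen activation per viability signal from cell pellet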
T4 sequence (P10520 whole entry): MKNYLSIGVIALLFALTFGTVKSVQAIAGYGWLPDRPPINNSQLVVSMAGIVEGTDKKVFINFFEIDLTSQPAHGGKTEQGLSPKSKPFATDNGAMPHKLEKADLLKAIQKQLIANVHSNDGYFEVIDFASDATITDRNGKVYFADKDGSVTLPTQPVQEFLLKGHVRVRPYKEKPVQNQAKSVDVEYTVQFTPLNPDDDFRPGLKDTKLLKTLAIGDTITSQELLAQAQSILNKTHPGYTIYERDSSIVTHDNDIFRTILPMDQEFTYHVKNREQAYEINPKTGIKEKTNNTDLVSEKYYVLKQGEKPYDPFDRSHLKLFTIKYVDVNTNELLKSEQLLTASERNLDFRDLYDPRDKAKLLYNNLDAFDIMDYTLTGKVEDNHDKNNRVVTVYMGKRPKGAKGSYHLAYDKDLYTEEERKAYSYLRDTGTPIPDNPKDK

Large T antigen = Large T antigen (Simian virus 40, UniProt P03070); format: functional, Betapolyomavirus macacae;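 further: Confirmatory-stage PubChem screen for compounds that inhibit SV40 T antigen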
Chain of Large T antigen (P03070 whole entry): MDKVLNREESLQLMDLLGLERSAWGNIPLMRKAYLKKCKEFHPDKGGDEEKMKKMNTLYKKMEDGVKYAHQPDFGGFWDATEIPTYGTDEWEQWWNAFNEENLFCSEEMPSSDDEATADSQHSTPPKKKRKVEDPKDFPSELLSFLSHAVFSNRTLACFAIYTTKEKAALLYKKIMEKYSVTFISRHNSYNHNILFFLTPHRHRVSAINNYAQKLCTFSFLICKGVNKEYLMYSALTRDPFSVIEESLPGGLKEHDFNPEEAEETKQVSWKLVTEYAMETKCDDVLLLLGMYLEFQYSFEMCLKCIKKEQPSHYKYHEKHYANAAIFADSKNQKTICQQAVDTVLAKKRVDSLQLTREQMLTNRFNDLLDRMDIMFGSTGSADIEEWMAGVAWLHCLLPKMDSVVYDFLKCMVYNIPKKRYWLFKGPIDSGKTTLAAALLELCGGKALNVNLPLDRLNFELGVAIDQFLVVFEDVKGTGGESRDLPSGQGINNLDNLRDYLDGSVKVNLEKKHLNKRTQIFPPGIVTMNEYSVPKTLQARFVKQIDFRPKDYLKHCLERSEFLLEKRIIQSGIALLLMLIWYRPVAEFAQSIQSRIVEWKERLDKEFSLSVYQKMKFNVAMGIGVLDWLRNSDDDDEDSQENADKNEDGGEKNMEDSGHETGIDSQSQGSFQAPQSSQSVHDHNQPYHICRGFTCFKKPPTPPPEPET

[19] = target: FAD-linked sulfhydryl oxidase ALR (Homo sapiens, UniProt P55789); assay: inhibitors of human ALR sulfhydryl oxidase, dose response, biochemical, H2O2 detection, luminescence, cherry-pick (AID 493248)
Chain of FAD-linked sulfhydryl oxidase ALR (P55789 whole entry): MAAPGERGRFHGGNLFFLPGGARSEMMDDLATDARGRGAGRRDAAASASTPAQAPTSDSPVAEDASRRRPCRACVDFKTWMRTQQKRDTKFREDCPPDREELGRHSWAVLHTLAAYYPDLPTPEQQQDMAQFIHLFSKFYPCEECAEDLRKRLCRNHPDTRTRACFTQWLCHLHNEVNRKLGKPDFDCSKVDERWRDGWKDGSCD

Cytochrome P450 2D6 = Cytochrome P450 2D6 (Homo sapiens, UniProt P10635);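 further: CYP2D6 member of a cytochrome P450 panel assay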
Chain of Cytochrome P450 2D6 (P10635 whole entry): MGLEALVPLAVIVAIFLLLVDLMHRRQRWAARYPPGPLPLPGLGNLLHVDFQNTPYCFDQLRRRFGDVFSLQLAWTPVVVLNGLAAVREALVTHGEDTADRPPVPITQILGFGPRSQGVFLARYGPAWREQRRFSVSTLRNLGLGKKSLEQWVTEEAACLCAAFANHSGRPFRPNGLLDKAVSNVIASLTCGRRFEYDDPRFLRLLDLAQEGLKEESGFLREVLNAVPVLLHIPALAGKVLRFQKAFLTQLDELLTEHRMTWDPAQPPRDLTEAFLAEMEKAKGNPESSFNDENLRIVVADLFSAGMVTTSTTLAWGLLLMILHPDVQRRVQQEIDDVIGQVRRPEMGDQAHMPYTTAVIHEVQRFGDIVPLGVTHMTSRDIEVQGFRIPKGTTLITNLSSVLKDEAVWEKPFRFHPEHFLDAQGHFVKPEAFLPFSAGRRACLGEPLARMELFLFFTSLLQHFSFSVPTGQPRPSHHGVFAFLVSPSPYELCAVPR

Cytochrome P450 2C9 [20] = target: T2, Cytochrome P450 2C9; remark: listed apart in the source
H9c2 = assay: cells; format: functional, cell-based; conditions: Rattus norvegicus, H9c2, Myocardium;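 further: confirmatory concentration-response retest of ultra-high-throughput screening hits for modulation of myocardial damage; cell death induced by hydrogen peroxide oxidative stress; compound pretreatment for 60 min then peroxide exposure for 2 h; potency is for protecting the cells against peroxide damage rather than for killing them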
[21] = Luminescence Cell-Based Dose Retest to Confirm Inhibitors of Cancer Stem Cells. [Related pubchem assays (depositor defined):AID2717, AID2721]; format: functional; conditions: Homo sapiens

SMILES: CCOc1cc(CNCCO)cc(Br)c1OCc1ccc(Cl)cc1
- EC50 [1]: 7.29 µM (active)
- EC50 [2]: 7.16 µM (active)
- CC50 [3]: 9.41 µM (active)
- CC50 [4]: 11 µM (active)
- CC50 [5]: 12.7 µM (active)
- IC50 (cells [6]): 26.9 µM (active)

SMILES: COC(=O)c1cc(S(=O)(=O)C(C)C)c([S+](C)[O-])s1 (centres undefined)
- EC50 [7]: 93.8 µM (active)

SMILES: O=C(Cc1ccc(S(=O)(=O)N2CCOCC2)s1)Nc1ccc(S(=O)(=O)N2CCCCC2)cc1
- EC50 (cells [8]): > 350 µM (not active)
- EC50 (cells [9]): > 350 µM (not active)

SMILES: CCCCn1nc2cc(C(=O)NCC3CC3)ccc2c1OCC
- AC50 (Cytochrome P450 2C19): 14.1 µM (inconclusive)
- AC50 (Cytochrome P450 2C9 [10]): inconclusive

SMILES: Cl.Fc1ccc(CCNCc2cccc(Cl)c2)cc1
- AC50 (Cytochrome P450 2C19): 1 µM (inconclusive)
- AC50 (Cytochrome P450 3A4): 12.6 µM (inconclusive)
- AC50 (Cytochrome P450 2C9 [10]): inconclusive

SMILES: CC(=O)Nc1ccc2nc(NC(=O)COc3ccccc3C)sc2c1
- EC50 (cells [8]): > 350 µM (not active)
- EC50 (cells [9]): > 350 µM (not active)

SMILES: CCOc1ccc(C(=O)Cc2cc(OC)c(OC)cc2[N+](=O)[O-])cc1
- AC50 (Cytochrome P450 2C19): 1.41 µM (inconclusive)
- AC50 (Cytochrome P450 2C9 [10]): inconclusive

SMILES: C=CCn1c(C)cc(C(=O)CN2C(=O)c3ccccc3C2=O)c1C
- EC50 [11]: 10.1 µM (inconclusive)
- EC50 [12]: 18.7 µM (active)
- EC50 [13]: 8.53 µM (active)
- AC50 (Cytochrome P450 2C9 [10]): inconclusive

SMILES: CCc1c(O)oc2nnc(C)c-2c1C
- AC50 (Cytochrome P450 2C19): 11.2 µM (inconclusive)
- AC50 (Cytochrome P450 2C9 [10]): inconclusive

SMILES: C=CC[C@@H]1Cc2c(Br)ccc(Br)c2[C@@H](CC=C)N1
- EC50 [7]: > 260 µM (inactive)

SMILES: COc1ccc(C(=O)NC(=S)NNC(=O)c2ccccc2C)cc1
- EC50 [14]: > 150 µM (inconclusive)
- EC50 [15]: 1.31 µM (active)
- EC50 [16]: 1.69 µM (active)
- EC50 (Streptococcus): 2.83 µM (active)
- CC50 (Vero): > 25 µM (active)

SMILES: Cc1ccc(CNC(=O)[C@H](C)N2C(=O)N3CCc4c([nH]c5ccccc45)[C@@]3(C)C2=O)cc1
- EC50 [7]: > 260 µM (inactive)

SMILES: COC(=O)c1ccc2c(=O)n(Cc3ccc(C(=O)NCCCN4CCC(C)CC4)cc3)c(=S)[nH]c2c1
- CC50 (Vero): 20.9 µM (active)

SMILES: COC(=O)[C@H](CCSC)NC(=O)c1cccnc1SC
- EC50 (cells [8]): > 350 µM (not active)
- EC50 (cells [9]): > 350 µM (not active)

SMILES: CCOC(=O)COn1c(-c2cccc(Cl)c2)nc2ccc([N+](=O)[O-])cc21
- CC50 [5]: > 20 µM (active)
- IC50 (cells [6]): 28.9 µM (active)
- IC50 (Protein skinhead-1): > 100 µM (inactive)

SMILES: CCS(=O)(=O)c1ncc(Cl)c(C(=O)Nc2ccccc2OC)n1
- EC50 [7]: 8.04 µM (active)
- AC50 (INS1): 38.9 µM (active)
- AC50 [17]: 3.71 µM (active)
- AC50 [18]: 4.81 µM (active)

SMILES: CCCCCCCCCCCC(=O)c1c(O)cccc1O
- EC50 [15]: 1.53 µM (active)
- EC50 (Streptokinase A): > 150 µM (not active)
- EC50 (Streptococcus): 7.15 µM (active)
- EC50 [7]: 60.1 µM (active)

SMILES: C=CCSc1cc(C)nc2c(-c3ccccc3)cnn12
- EC50 (cells [8]): > 350 µM (not active)
- EC50 (cells [9]): 26.8 µM (active)

SMILES: O=c1c2ccccc2sc2nc(C3CCCCC3)n(Cc3ccco3)c(=O)c12
- EC50 [7]: 47.8 µM (active)

SMILES: CCN(CC)c1ccc(NC(=O)c2cccnc2)c(C)c1
- IC50 (Large T antigen): 77.3 µM (active)
- AC50 [19]: 0.877 µM (active)
- AC50 (Cytochrome P450 2C19): 39.8 µM (inconclusive)
- AC50 (Cytochrome P450 2C9 [10]): inconclusive

SMILES: CC(=O)/N=c1\sccn1CC(=O)c1ccc([N+](=O)[O-])cc1
- EC50 [7]: > 260 µM (inactive)
- AC50 (Cytochrome P450 2D6): 14.1 µM (inconclusive)
- AC50 (Cytochrome P450 2C9 [20]): 0.0794 µM (inconclusive)

SMILES: CCn1c(/C=N/NC(=O)c2ccc(OC)cc2)nc2ccccc21
- CC50 [3]: 24.1 µM (active)
- CC50 [4]: > 20 µM (active)
- CC50 [5]: 17.9 µM (active)
- IC50 (cells [6]): 15.7 µM (active)
- IC50 (H9c2): > 79 µM (inactive)

SMILES: COc1cc(N/N=C(\C)c2ccc(O)c(C)c2)nc(-c2ccccc2)n1
- AC50 [21]: 3.99 µM (active)
- CC50 (Vero): > 25 µM (active)

SMILES: CC(C)c1ccc2[nH]c3c(c2c1)CCC/C3=N\NC(=O)c1ccncc1
- EC50 [15]: 3.54 µM (active)
- EC50 (Streptokinase A): > 150 µM (not active)
- EC50 (Streptococcus): 16.9 µM (active)
- CC50 [3]: 26 µM (active)
- CC50 [4]: > 20 µM (active)
- CC50 [5]: 11.6 µM (active)
- IC50 (cells [6]): 2 µM (active)
